Type in all cases: in vivo, Duroc swine
Series [1] in a line: Serum arginine levels after intravenous citrulline in piglets. The settings on record: citrulline 600 mg/kg IV. Here is the method: (§1) Intravenous citrulline has not been previously used in a clinical model. This Example assessed the safety of IV citrulline and its effect on serum arginine levels in piglets. A total of 9 Duroc swine, aged 5-21 days, with a target minimum weight of 4 kg were utilized. All piglets underwent anesthetic induction and tracheostomy. Central lines were placed in the femoral artery and femoral vein and hemodynamics monitored continuously. Citrulline (600 mg/kg IV) was administered to 5 piglets. Saline was given to control animals. Serum amino acids were drawn before and each hour after citrulline administration.

A short description of series [2]: Hemodynamic monitoring (mean arterial blood pressure) after IV citrulline in piglets. The note with it: citrulline 600 mg/kg IV. On the procedure: as §1
Series [3] is described as follows: Pharmacokinetics of plasma citrulline and arginine after single dose of IV citrulline. The settings on record: piglets, single dose IV citrulline 600 mg/kg. On the procedure: as §1
Pharmacokinetics: Based on the above data, the pharmacokinetics were calculated for both plasma citrulline and arginie levels after the single dose of IV citrulline. Pharmacokinetic data included plasma half-life (t½), elimination constant (Kel), volume of distribution (Vd), and plasma clearance (CLp).

For `NC(=O)NCCC[C@H](N)C(=O)O` [Citrulline, citrulline], in series [1], the “Time of peak serum arginine levels following IV citrulline administration” value is 1 to 2 h. For the same molecule, the “Arginine Levels Following IV Citrulline, 1 hour post” value in series [1] (1 hour post, serum) came out at 535.0 µmol/L. Besides, the “Arginine Levels Following IV Citrulline, 2 hours post” value in series [1] (2 hours post, serum) is 559.8 µmol/L. In series [1] (3 hours post, serum), the “Arginine Levels Following IV Citrulline, 3 hours post” value is 498.4 µmol/L. Also, the “Arginine Levels Following IV Citrulline, Baseline” value in series [1] (baseline (before administration), serum) is 131.5 µmol/L. In addition, in series [2] (1 hour post), the “Mean Arterial Blood Pressures Following IV Citrulline, 1 hour post” value amounted to 67.4 mmHg. In series [2] (2 hours post), the “Mean Arterial Blood Pressures Following IV Citrulline, 2 hours post” value is on record as 64.8 mmHg. Moreover, the “Mean Arterial Blood Pressures Following IV Citrulline, 3 hours post” value in series [2] (3 hours post) is 62.2 mmHg. Besides, the Hemodynamic instability entry in series [2] (hemodynamics monitored continuously) was “No hemodynamic instability was observed”. Moreover, the “Mean Arterial Blood Pressures Following IV Citrulline, Pre-dose” value in series [2] (pre-dose) worked out at 67.0 mmHg. Besides, in series [3] (Duroc, pig, plasma, read-out: Plasma citrulline half-life (t½) (converted)), the half-life was 1.5 h. For the same molecule, in series [3] (Duroc, pig, plasma, read-out: Plasma citrulline plasma clearance (CLp) (converted)), the clearance is 17.5 mL/min. In series [3] (Duroc, pig, plasma, read-out: Plasma citrulline volume of distribution (Vd)), the Vd is 2.25 L. Also, the “Plasma citrulline elimination constant (Kel)” value in series [3] came to 0.462 h⁻¹.

(Values after patent publication US8536225B2, “Therapeutic methods employing nitric oxide precursors” (Vanderbilt University, priority 1999, dated 2013).)
